US10760130B2, “Predictive biomarker for hypoxia-activated prodrug therapy” (MOLECULAR TEMPLATES, INC., priority 2014, dated 2020)

How the values were obtained:
[1] = system: panel of 11 cancer cell-line derived models; details: tumor xenografts, variety of tumor types; cited from earlier work
[2] = system: locally advanced or metastatic pancreatic cancer; experiment: TH-CR-404 Phase II clinical trial in pancreatic cancer (NCT01144455); format: in vivo, human
Experimental: In the TH-CR-404 Phase II clinical trial in pancreatic cancer (NCT01144455), pancreatic cancer patients with locally advanced or metastatic disease were randomized in three study arms to receive Gemcitabine (Gem) therapy or the combination of Gemcitabine with one of 2 dose levels of TH-302. TH-302 was administered either at 240 or 340 mg/m^2 by intravenous infusion. A total of 214 patients were enrolled (Gemcitabine arm, n=69; Gemcitabine+TH-302 240 mg/m^2, n=71; Gemcitabine+TH-302 340 mg/m^2, n=74).
To search for potentially predictive serum biomarkers of the clinical benefit derived from TH-302 hypoxia-activated therapy, an initial search of candidate biomarkers was conducted from the trial pre-treatment serum samples using a multiplexed bead-based immunoassay (AssayGate, Inc., Ijamsville, Md.). When measuring serum samples for ENO1 and ENO2 protein levels by means of this bead-based, suspension immunoassay format for ENO1, the limit of detection of the assay was 1.8 ng/ml. For ENO2, the assay sensitivity was 1.2 ng/ml.
Following the identification of ENO2 as a potentially predictive biomarker for the clinical benefit derived from TH-302, the levels of ENO1 were tested in the same patient serum samples (Harris A L, 2002, Nat Rev Cancer 2: 38-47; Semenza G L, 2003, Nat Rev Cancer 3: 721-732). High levels of ENO1 were associated with improved PFS and OS in Gemcitabine+TH-302 340 mg/m^2 patient samples in this trial (FIG. 2). These associations were shown using the ENO1 cut-off value of the assay sensitivity limit (1.8 ng/ml) (FIGS. 2A and 2B).

[3] = system: locally advanced or metastatic pancreatic cancer; details: cited from earlier work

Cn1c(COP(=O)(NCCBr)NCCBr)cnc1[N+](=O)[O-] [TH-302, (2-bromoethyl)({[(2-bromoethyl)amino][(2-nitro-3-methylimidazol-4-yl)methoxy]phosphoryl})amine]
monotherapy efficacy (tumor growth delay) [1]: modest | difference between treatment groups of median PFS time among patients with high ENO2 ([2]; Gem vs Gem+TH-302 340 mg/m^2, ENO2 median cut-off 20.3913 ng/ml, FIG. 1A): more pronounced | difference between treatment groups of median OS time among patients with high ENO2 ([2]; Gem vs Gem+TH-302 340 mg/m^2, ENO2 median cut-off 20.3913 ng/ml, FIG. 1B): more pronounced | OS in patients with high serum ENO1 levels ([2]; Gemcitabine+TH-302 340 mg/m^2, ENO1 cut-off 1.8 ng/ml (more pronounced at 2.3 and 3.2 ng/ml), FIG. 2B-2D): improved | PFS in patients with high serum ENO1 levels ([2]; Gemcitabine+TH-302 340 mg/m^2, ENO1 cut-off 1.8 ng/ml, FIG. 2A): improved | progression free survival (PFS) hazard ratio (HR) ([3]; Gemcitabine+TH-302 340 mg/m^2 (high-dose group) vs Gemcitabine alone, intravenous infusion, p=0.008): 0.58 | primary endpoint: progression free survival (PFS) ([3]; Gemcitabine+TH-302 groups (240 or 340 mg/m^2) compared to Gemcitabine alone): improved progression free survival
